Data from patent publication US9833497B2, “Human originated EGF domain proteins and use of the same” (CHENGDU SOURCEBIO LIMITED-LIABILITY COMPANY, priority 2013, dated 2017).

What was measured:
Type in all cases: cell-based
[1] = tested on: Pseudomonas aeruginosa; experiment: MIC against Gram-negative bacteria: Pseudomonas aeruginosa; settings: 5×10^5 CFU/mL
In short: (§1)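 Antibacterial activity of purified human EGF domain proteins: two-fold concentration series, triplicate wells, LB broth, 5×10^5 CFU/mL bacteria, 37° C shaking incubation. The lowest concentration without growth defines the MIC.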

[2] = tested on: Enterobacter cloacae; experiment: MIC against Gram-negative bacteria: Enterobacter cloacae; settings: 5×10^5 CFU/mL
In short: as §1

[3] = tested on: Moraxella catarrhalis; experiment: MIC against Gram-negative bacteria: Moraxella catarrhalis; settings: 5×10^5 CFU/mL
In short: as §1

[4] = tested on: Proteus vulgaris; experiment: MIC against Gram-negative bacteria: Proteus vulgaris; settings: 5×10^5 CFU/mL
In short: as §1

[5] = tested on: E. coli DH5α; experiment: Antibacterial activity: MIC and growth curve against E. coli DH5α in 96-well plate; settings: minimal inhibitory concentration against E. coli DH5α; 96-well plate, 5×10^5 CFU/mL, 37° C., judged after 8 h
In short: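 MIC taken as lowest protein level with no bacterial growth, tracked by A600 every 30 min during 37 °C, 175 rpm culture. Two-fold protein series 50-12.5 μg/mL final, triplicate wells, against 5×10^5 CFU/mL of LB-washed mid-log cells.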

[6] = tested on: Citrobacter diversus; experiment: MIC against Gram-negative bacteria: Citrobacter diversus; settings: 5×10^5 CFU/mL
In short: as §1

[7] = tested on: Klebsiella pneumonia; experiment: MIC against Gram-negative bacteria: Klebsiella pneumonia; settings: 5×10^5 CFU/mL
In short: as §1

[8] = tested on: Serratia marcescens; experiment: MIC against Gram-negative bacteria: Serratia marcescens; settings: 5×10^5 CFU/mL
In short: as §1

[9] = tested on: Aeromonas hydrophila; experiment: MIC against Gram-negative bacteria: Aeromonas hydrophila; settings: 5×10^5 CFU/mL
In short: as §1

[10] = tested on: E. coli BL21; experiment: MIC against Gram-negative bacteria: E. coli BL21; settings: 5×10^5 CFU/mL
In short: as §1

[11] = tested on: Proteus mirabilis; experiment: MIC against Gram-negative bacteria: Proteus mirabilis; settings: 5×10^5 CFU/mL
In short: as §1

[12] = 10 h cultivation at 37° C., two-fold serial dilution
[13] = Pseudomonas aeruginosa, 96-well plate, 37° C., 10 h
[14] = Enterobacter cloacae, 96-well plate, 37° C., 10 h
[15] = Moraxella catarrhalis, 96-well plate, 37° C., 10 h
[16] = Proteus vulgaris, 96-well plate, 37° C., 10 h
[17] = Citrobacter diversus, 96-well plate, 37° C., 10 h
[18] = Klebsiella pneumonia, 96-well plate, 37° C., 10 h
[19] = Serratia marcescens, 96-well plate, 37° C., 10 h
[20] = Aeromonas hydrophila, 96-well plate, 37° C., 10 h
[21] = E. coli BL21, 96-well plate, 37° C., 10 h
[22] = Proteus mirabilis, 96-well plate, 37° C., 10 h

PRT638 (DVNECELLSGVCGEAFCENVEGSFLCVCADENQEYSPMTGQCR; listed as Homo sapiens)
MIC P. aeruginosa ([1]; 96-well plate, 37° C., 10 h): 50 µg/mL | MIC E. cloacae ([2]; 96-well plate, 37° C., 10 h): 25 µg/mL | MIC M. catarrhalis ([3]; 96-well plate, 37° C., 10 h): 12.5 µg/mL | MIC P. vulgaris ([4]; 96-well plate, 37° C., 10 h): 12.5 µg/mL | MIC [5]: 25 µg/mL | MIC C. diversus ([6]; 96-well plate, 37° C., 10 h): 25 µg/mL | MIC K. pneumonia ([7]; 96-well plate, 37° C., 10 h): 12.5 µg/mL | MIC S. marcescens ([8]; 96-well plate, 37° C., 10 h): 50 µg/mL | MIC A. hydrophila ([9]; 96-well plate, 37° C., 10 h): 50 µg/mL | MIC E. coli BL21 ([10]; 96-well plate, 37° C., 10 h): 12.5 µg/mL | MIC P. mirabilis ([11]; 96-well plate, 37° C., 10 h): 50 µg/mL

PRT1186 (KNSSCLPNPCVNGGTCVGSGASFSCICRDGWEGRTCT; listed as Homo sapiens)
MIC P. aeruginosa [1, 12]: 12.5 µg/mL | MIC E. cloacae [2, 12]: 50 µg/mL | MIC M. catarrhalis [3, 12]: 50 µg/mL | MIC P. vulgaris [4, 12]: 50 µg/mL | MIC [5]: 50 µg/mL | MIC C. diversus [6, 12]: 25 µg/mL | MIC K. pneumonia [7, 12]: 25 µg/mL | MIC S. marcescens [8, 12]: 12.5 µg/mL | MIC A. hydrophila [9, 12]: 12.5 µg/mL | MIC E. coli BL21 [10, 12]: 25 µg/mL | MIC P. mirabilis [11, 12]: 12.5 µg/mL

PRT1322 (PIDPCRAGNGGCHGLATCRAVGGGQRVCTCPPGFGGDGFS; listed as Homo sapiens)
MIC against P. aeruginosa [1, 13]: 12.5 µg/mL | MIC against E. cloacae [2, 14]: 50 µg/mL | MIC against M. catarrhalis [3, 15]: 12.5 µg/mL | MIC against P. vulgaris [4, 16]: 25 µg/mL | MIC [5]: 12.5 µg/mL | MIC against C. diversus [6, 17]: 50 µg/mL | MIC against K. pneumonia [7, 18]: 25 µg/mL | MIC against S. marcescens [8, 19]: 12.5 µg/mL | MIC against A. hydrophila [9, 20]: 12.5 µg/mL | MIC against E. coli BL21 [10, 21]: 25 µg/mL | MIC against P. mirabilis [11, 22]: 12.5 µg/mL

PRT826 (FGVGCEHTCSCRNGGLCHASNGSCSCGLGWTGRHCE; listed as Homo sapiens)
MIC (μg/mL) P. aeruginosa ([1]; P. aeruginosa, 10 h cultivation at 37° C.): 25 µg/mL | MIC (μg/mL) E. cloacae ([2]; E. cloacae, 10 h cultivation at 37° C.): 50 µg/mL | MIC (μg/mL) M. catarrhalis ([3]; M. catarrhalis, 10 h cultivation at 37° C.): 25 µg/mL | MIC (μg/mL) P. vulgaris ([4]; P. vulgaris, 10 h cultivation at 37° C.): 12.5 µg/mL | MIC [5]: 12.5 µg/mL | MIC (μg/mL) C. diversus ([6]; C. diversus, 10 h cultivation at 37° C.): 12.5 µg/mL | MIC (μg/mL) K. pneumonia ([7]; K. pneumonia, 10 h cultivation at 37° C.): 100 µg/mL | MIC (μg/mL) S. marcescens ([8]; S. marcescens, 10 h cultivation at 37° C.): 12.5 µg/mL | MIC (μg/mL) A. hydrophila ([9]; A. hydrophila, 10 h cultivation at 37° C.): 12.5 µg/mL | MIC (μg/mL) E. coli BL21 ([10]; E. coli BL21, 10 h cultivation at 37° C.): 50 µg/mL | MIC (μg/mL) P. mirabilis ([11]; P. mirabilis, 10 h cultivation at 37° C.): 12.5 µg/mL

PRT569 (CDCDLGGALNNSCFAESGQCSCRPHMIGRQC; listed as Homo sapiens)
MIC against P. aeruginosa ([1]; 96-well plate, 37° C., 10 h): 25 µg/mL | MIC against E. cloacae ([2]; 96-well plate, 37° C., 10 h): 12.5 µg/mL | MIC against M. catarrhalis ([3]; 96-well plate, 37° C., 10 h): 25 µg/mL | MIC against P. vulgaris ([4]; 96-well plate, 37° C., 10 h): 25 µg/mL | MIC [5]: 25 µg/mL | MIC against C. diversus ([6]; 96-well plate, 37° C., 10 h): 100 µg/mL | MIC against K. pneumonia ([7]; 96-well plate, 37° C., 10 h): 12.5 µg/mL | MIC against S. marcescens ([8]; 96-well plate, 37° C., 10 h): 12.5 µg/mL | MIC against A. hydrophila ([9]; 96-well plate, 37° C., 10 h): 25 µg/mL | MIC against E. coli BL21 ([10]; 96-well plate, 37° C., 10 h): 12.5 µg/mL | MIC against P. mirabilis ([11]; 96-well plate, 37° C., 10 h): 12.5 µg/mL

PRT1250 (FGARCDRYCQCFRGRCHPVDGTCACEPGYRGKYCR; listed as Homo sapiens)
MIC against P. aeruginosa [1, 13]: 12.5 µg/mL | MIC against E. cloacae [2, 14]: 50 µg/mL | MIC against M. catarrhalis [3, 15]: 12.5 µg/mL | MIC against P. vulgaris [4, 16]: 50 µg/mL | MIC [5]: 12.5 µg/mL | MIC against C. diversus [6, 17]: 50 µg/mL | MIC against K. pneumonia [7, 18]: 25 µg/mL | MIC against S. marcescens [8, 19]: 25 µg/mL | MIC against A. hydrophila [9, 20]: 12.5 µg/mL | MIC against E. coli BL21 [10, 21]: 50 µg/mL | MIC against P. mirabilis [11, 22]: 25 µg/mL

PRT27 (NACASGPCPPHADCRDLWQTFSCTCQPGYYGPGCV; listed as Homo sapiens)
MIC (μg/mL) P. aeruginosa [1, 13]: 50 µg/mL | MIC (μg/mL) E. cloacae [2, 14]: 12.5 µg/mL | MIC (μg/mL) M. catarrhalis [3, 15]: 12.5 µg/mL | MIC (μg/mL) P. vulgaris [4, 16]: 50 µg/mL | MIC [5]: 12.5 µg/mL | MIC (μg/mL) C. diversus [6, 17]: 50 µg/mL | MIC (μg/mL) K. pneumonia [7, 18]: 25 µg/mL | MIC (μg/mL) S. marcescens [8, 19]: 100 µg/mL | MIC (μg/mL) A. hydrophila [9, 20]: 25 µg/mL | MIC (μg/mL) E. coli BL21 [10, 21]: 25 µg/mL | MIC (μg/mL) P. mirabilis [11, 22]: 25 µg/mL
